Experimental data published in patent publication US20030166502A1, “Differential regulation of T cell survival and proliferation” (Washington University, priority 2001, published 2003).
“Also recorded” adds a separate entry of the source.

What was measured:
Type in all cases: cell-based, mice
[1] = system: CD28-deficient DO11.10 splenocytes (T cells); experiment: Proliferation assay: tritiated thymidine incorporation of retrovirally infected splenocytes stimulated with OVA(323-339) peptide and APC; settings: CD28-deficient T cells reconstituted with the construct; for CD28-dependent proliferation: OVA(323-339) peptide plus T-depleted irradiated Balb/c splenocytes, final 8 h of 72 h culture
IL-2 = IL-2 content of culture supernatants by CTLL-2 bioassay; settings: cells expressing the construct; OVA peptide antigen or antigen plus anti-CD28 (1.0 μg/ml); supernatant at 48 hours
Experimental: FIG. 3 contains three bar graphs. Splenocytes from CD28-deficient DO11.10 mice were infected with retrovirus encoding either control (GFPRV) or wild type CD28 (FLCD28) or mutant CD28 constructs and stimulated with OVA(323-339) peptide alone, with CTLA4Ig (10 μg/ml) or with anti-CD28 mAb (1.0 μg/ml). Culture supernatant was harvested at 48 hours and assessed for IL-2 by CTLL-2 bioassay. Shown is the tritiated thymidine incorporation of the CTLL-2 cells. The mean +/−the std deviation of quadruplicate wells is plotted. Data from one representative experiment is shown. A) CTLL-2 assay following stimulation with 0.1 μM OVA. B) CTLL-2 assay following stimulation with 0.03 μM OVA.
Proliferation assays: Wild type or CD28-deficient DO11.10 splenocytes were isolated and infected with retrovirus encoding for either vector alone, full-length CD28, or mutant CD28 proteins. 5×10^4 infected cells were cocultured with 1.5×10^5 T-depleted, irradiated splenocytes from Balb/c mice. Graded doses of OVA(323-339) peptide were added alone or in combination with murine CTLA4Ig (10 μg/ml, provided by Genetics Institute, Cambridge Mass.), anti-CD28 mAb (1.0 μg/ml) or control Ig. Proliferation was determined by tritiated thymidine incorporation for the final 8 hours of a 72 hour culture. All conditions were plated in quadruplicate and the mean +/− standard deviation of the quadruplicate wells was determined. Culture supernatants were harvested from replicate plates at 48 hours and were assayed for IL-2 content by CTLL-2 bioassay. All experiments were repeated a minimum of three times. Representative data from one experiment is presented.
CD28 regulates IL-2 by both transcriptional and post-transcriptional processes (Fraser, J. D., etal., 1991. CD28. Science 251:313. Lindsten, T., et al 1989. Science 244:339). […]

Bcl-XL = Bcl-XL expression by Western blot in retrovirally infected T cells; settings: cells expressing the construct, anti-CD3 (10 μg/ml) alone or with soluble anti-CD28 (1.0 μg/ml)

Row | Substance | CD28-dependent proliferation [1] | IL-2 secretion (IL-2) | induction of Bcl-XL protein (Bcl-XL) | CD28-dependent proliferation, % proliferation of controls ([1]; multiple experiments (FIG. 2B)) | induction of Bcl-XL protein (Bcl-XL; listed as CD28PI 87,190A)
1 | CD28Y188F: CD28 mutant which lacked the tyrosine within the PYAP motif (SEQ ID NO: 8) (IWTNSRRLLQSDYMNMTPRRPGLTRKPYQPFAPARDFAAYRP; listed as Homo sapiens) | less effect | comparable to wild type |  |  | 
2 | CD28d16: CD28 mutant with deletion of the C-terminal 16 amino acids (SEQ ID NO: 5) (IWTNSRRLLQSDYMNMTPRRPGLTRK; listed as Homo sapiens) | did not produce any significant CD28-dependent proliferation |  | unable to induce Bcl-XL induction |  | 
3 | CD28Y170F: mutant CD28 with phenylalanine substituted for the tyrosine at position 170 (SEQ ID NO: 6) (IWTNSRRLLQSDFMNMTPRRPGLTRKPYQPYAPARDFAAYRP; listed as Homo sapiens) | appeared normal | comparable to wild type; also recorded: equivalent levels as cells reconstituted with wild type CD28 | unable to induce Bcl-XL induction | 60-80% | 
4 | CD28P187,190A: CD28 mutant with alanine instead of proline residues at position 187 and 190 (SEQ ID NO: 7) (IWTNSRRLLQSDYMNMTPRRPGLTRKPYQAYAAARDFAAYRP; listed as Homo sapiens) | abrogated CD28-dependent proliferation | marked decrease in IL-2 secretion | Bcl-XL induction was induced |  | increased Bcl-XL expression
5 | FLCD28: full-length wild type murine CD28 expressed by retrovirus (SEQ ID NO: 3) (IWTNSRRLLQSDYMNMTPRRPGLTRKPYQPYAPARDFAAYRP; listed as Homo sapiens) | strong proliferative response |  | CD28-dependent induction of Bcl-XL protein |  | 
